Data from patent publication US20130326728A1, “AGENTS FOR INCREASED RESISTANCE AGAINST OXIDATIVE STRESS CONDITIONS” (KATHOLIEKE UNIVERSITEIT LEUVEN, priority 2010, published 2013).
Entries after “also recorded” stand apart in the source; their conditions may differ.

Assays:
[1] = test system: peroxide-induced ROS in yeast; assay: ROS accumulation assay (H2DCFDA) in peroxide-treated yeast with exogenous OSIP; assay type: cell-based; settings: 500 μM peptide, compared to mock treatment
Protocol: (§1) ROS, after H2O2 treatment in the absence or presence of 500 μM OSIP, were determined using 2,7-dichlorodihydrofluorescein diacetate (H2DCFDA) staining as described previously (24). Survival of WT yeast in PBS following H2O2 treatment in the absence or presence of 500 μM OSIP was assessed as described (25).
(§2) The effect of OSIP108 on endogenous ROS levels induced by peroxide in yeast were evaluated. Peroxide-induced ROS in yeast in the absence and presence of OSIP108 were measured using 2,7-dichlorodihydrofluorescein diacetate (H2DCFDA) (FIG. 3A). […] Moreover, we found the survival of peroxide-treated yeast cells (5 mM) to increase 27-fold upon incubation with 500 μM OSIP108 (FIG. 3B).

[2] = test system: Saccharomyces cerevisiae strain BY4741; assay: Halo test of H2O2 tolerance of OSIP-overexpressing yeast; assay type: cell-based; settings: 15 μL of 240 mM H2O2, galactose vs glucose agar, 48 h at 30° C.; versus negative controls
Protocol: Resistance of the selected yeast transformants and the two positive control transformants against oxidative stress induced by H2O2 was additionally assayed in a halo test, by spotting 15 μL of 240 mM H2O2 on SC-ura agar, containing either glucose or galactose, and inoculated with 1/200 of overnight yeast culture as described previously (23). After 48 h of incubation at 30° C., diameters of the halos were measured.
The halo-test comprises a predefined but continuous concentration gradient of H2O2, applied to inoculated agar plates. Upon incubation, circles (halos) of growth inhibition are visible. By comparing the diameter of the halos of plates with yeast grown on glucose (not allowing for expression of the OSIP) and galactose (inducing overexpression of the OSIP) the effect of the OSIP on oxidative stress tolerance was quantified.

[3] = test system: WT yeast; assay: Survival assay of peroxide-treated WT yeast with exogenous OSIP; assay type: cell-based; settings: for effect on survival of yeast cells after treatment with peroxide (in words): exogenous addition of the peptides
Protocol: as §1, §2

[4] = test system: yeast Δccc2 mutant; assay: Exogenous OSIP108 on yeast Δccc2 mutant at lethal copper dose (MTT viability dye halo, ROS); assay type: cell-based; settings: exogenous addition
Protocol: This was tested by spotting 5 μL of 10 mM OSIP108 onto agar plates containing a yeast Δccc2 mutant, 500 μM CuSO4 and a viability dye based on MTT. Plates were incubated for 24 h and placed at 4° C. for 2 days. Blue halos were indicative of surviving yeast cells.

[5] = test system: CHO cell lines expressing ATP7b; assay: Viability (MTT) of CHO cells expressing ATP7b under toxic copper; assay type: cell-based; settings: 100 μM OSIP108, 0.75 mM copper, 48 h
Protocol: (§3) No: viability of cells without addition of peptide; OSIP: OSIP108 was added simultaneously added to cells together with Cu; and OSIP pre: cells were preincubated with the peptide for 12 h prior to addition of Cu.
(§4) CHO cell lines expressing either ATP7b or ATP7b mutant H1069Q (a mutation frequently found in patients having Wilson's Disease) were incubated with OSIP108 (100 μM). The viability of cells was determined after 48 h exposure to toxic copper concentrations of 0.75 mM by MTT assay and calculated relative to cells that receive no copper (100%).

[6] = test system: yeast Δccc2 mutant; assay: Copper-induced growth inhibition of yeast Δccc2 mutant overexpressing the OSIP108 gene; assay type: cell-based; settings: overexpression of the gene encoding OSIP108
From the text: Copper ions are known to induce apoptosis of hepatocytes, one of the underlying mechanisms of copper-induced toxicity in Wilson's Disease (WD). WD is caused by mutations in the ATPase ATP7b.

[7] = test system: Col-0 A. thaliana plants; assay: Paraquat lesion diameter on A. thaliana leaves infiltrated with OSIP108; assay type: in vivo, Arabidopsis thaliana; settings: three days after paraquat (5 μl, 100 μM); leaf infiltrated with 100 μM OSIP108 24 h before; control 4.45±1.37 mm
Protocol: At least twelve soil grown, 4 week old Col-0 A. thaliana plants, were used in which one leaf of each plant was syringe-infiltrated with 100 μM OSIP108 dissolved in 1% dimethyl sulphoxide (DMSO). At least 12 control plants were mock treated with 1% DMSO only. After 24 h incubation in the growth chamber, the plants were inoculated with a drop of 5 μl paraquat (100 μM). The lesion diameters caused by the paraquat treatment were measured and compared 2 and 3 days after the treatment.

[8] = test system: CHO cell lines expressing ATP7b mutant H1069Q; assay: Viability (MTT) of CHO cells expressing ATP7b mutant H1069Q under toxic copper; assay type: cell-based; settings: 100 μM OSIP108, 0.75 mM copper, 48 h
Protocol: as §3, §4

[9] = test system: human hepatoma cell line HepG2; assay: HepG2 cell viability (MTT) in presence of copper or cisplatin; assay type: cell-based
Protocol: The mean and SE of three experiments is shown. No: viability of cells without addition of peptide; OSIP: OSIP108 was added simultaneously added to cells together with Cu; OSIP pre, cells were preincubated with OSIP108 for 12 h prior to addition of Cu.
The human hepatoma cell line HepG2 which naturally expresses hATP7B was incubated with 100 μM of peptide OSIP108. The viability of cells was determined after 48 h exposure to toxic copper concentrations of 0.75 mM by MTT assay. The viability was calculated relative to cells that receive no copper (100%).

[10] = test system: yeast BY4741; assay: Yeast growth inhibition by apoptosis-inducing compounds (OD600) with or without OSIP108; assay type: cell-based, Saccharomyces cerevisiae
Protocol: Yeast growth was monitored upon treatment with different apoptosis-inducing compounds in the presence (black bars) or absence (white bars) of 200 μM OSIP108. Percentage growth was calculated as the ratio of the OD600 of the treated culture over an unstressed yeast culture after 10 h (A) or 48 h (B) of incubation.
In this respect, in parallel with mitochondrial copper toxicity, the use of the other mitochondrial toxins, in casu valproic acid, tunicamycin, doxycyclin and cisplatin, expand the range of causes of mitochondrial dysfunction and help find a broader basis for compounds rescuing mitochondrial dysfunction. Optical density (OD600) of yeast BY4741 was monitored upon treatment with different apoptosis-inducing compounds in the presence or absence of 200 μM OSIP108. OSIP108 and apoptosis-inducers were added simultaneously to the yeast cells. Percentage growth was calculated as the ratio of the OD600 of the treated culture over an unstressed yeast culture after 10 h or 48 h of incubation. […] Also, OSIP108 but not OSIP(C3A) can rescue copper- and cisplatin-induced growth inhibition of yeast

Sequence	peroxide-induced endogenous ROS (DCF fluorescence intensity) [1]	halo test: average difference in halo diameter / tolerance to H2O2 [2]	effect on survival of yeast cells after treatment with peroxide (in words) [3]	copper-induced accumulation of reactive oxygen species (ROS) in Δccc2 mutant [4]	viability of the Δccc2 yeast mutant ([4]; in presence of copper)	survival of Δccc2 yeast mutant at lethal copper dose ([4]; 5 μL of 10 mM OSIP108 spotted, 500 μM CuSO4)	copper resistance / viability of CHO cells expressing ATP7b [5]	copper-induced growth inhibition of Δccc2 mutant [6]	average lesion diameter [7]	increase of survival of peroxide-treated yeast cells ([3]; 5 mM peroxide, 500 μM OSIP108)	copper resistance / viability of CHO cells expressing ATP7b mutant H1069Q [8]	copper resistance of HepG2 (viability) ([9]; FIG. 5, 100 μM OSIP108, 0.75 mM copper, 48 h, MTT)	survival of HepG2 cells in the presence of copper or cisplatin ([9]; pre-incubation with peptide)	rescue of copper- and cisplatin-induced growth inhibition of yeast [10]	yeast growth in presence of cisplatin ([10]; 200 uM OSIP108, 250 and 125 μM cisplatin, compared to control treatment)	rescue of yeast growth inhibition by other apoptosis-inducers ([10]; 200 μM OSIP108, apoptosis-inducers other than cisplatin)
MIIINNDNYLLLFYNNN (listed as Arabidopsis thaliana) [SIP14—1]	decrease in the amount of endogenous ROS	significant enhanced tolerance	less effect than SIP108													
MIIIYYCFIIIIN (listed as Arabidopsis thaliana) [SIP14—2]	decrease in the amount of endogenous ROS	significant enhanced tolerance	less effect than SIP108													
MLCVLQGLRE (listed as Arabidopsis thaliana) [OSIP108]	significantly lower	significantly lower		reduced	increased viability	induces survival	enhanced the copper resistance; also recorded: significantly enhances copper resistance	could alleviate copper-induced growth inhibition	2.18±1.60 mm	27 fold	enhanced the copper resistance; also recorded: significantly enhances copper resistance	significantly enhances copper resistance	increased survival	can rescue	significant increase in growth	fails to rescue
MLMYRMRSGAN (listed as Arabidopsis thaliana) [SIP11]	decrease in the amount of endogenous ROS	significant enhanced tolerance	less effect than SIP108													
